Laboratory results: ChEMBL document CHEMBL1201862, “PubChem BioAssay data set” (2004)
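1) Cells in 96-well plates. 2) Compound, 48 h, 5 concentrations. 3) Linear interpolation between surrounding doses. 4) Unreached endpoint = highest concentration. GI50 marks 50% less growth.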 Activity calls are given as the source filed them. No stated cut-off is given here; in the data, active = GI50 up to about 1.1 µM and inactive = higher.

Key:
Assay in all cases: NCI anticancer screen, dose series, 48 h
NCI-H460 = tested on: NCI-H460
SF-295 = tested on: SF-295
TK-10 = tested on: TK-10
U-251 = tested on: U-251
SK-OV-3 = tested on: SK-OV-3
UACC-257 = tested on: UACC-257
PC-3 = tested on: PC-3
HL-60 = tested on: HL-60
SF-539 = tested on: SF-539
IGROV-1 = tested on: IGROV-1
HCT-116 = tested on: HCT-116
OVCAR-8 = tested on: OVCAR-8
A549 = tested on: A549
OVCAR-4 = tested on: OVCAR-4
SNB-19 = tested on: SNB-19
Hs-578T = tested on: Hs-578T
SK-MEL-5 = tested on: SK-MEL-5
SR = tested on: SR
SF-268 = tested on: SF-268
MDA-MB-435 = tested on: MDA-MB-435
DU-145 = tested on: DU-145
SW-620 = tested on: SW-620
OVCAR-5 = tested on: OVCAR-5
T47D = tested on: T47D
Malme-3M = tested on: Malme-3M
EKVX = tested on: EKVX
M14 = tested on: M14
HCT-15 = tested on: HCT-15
NCI-H226 = tested on: NCI-H226
LOX IMVI = tested on: LOX IMVI
NCI-H522 = tested on: NCI-H522
CAKI-1 = tested on: CAKI-1
SN12C = tested on: SN12C
HOP-62 = tested on: HOP-62
COLO 205 = tested on: COLO 205
OVCAR-3 = tested on: OVCAR-3
KM12 = tested on: KM12
NCI-H23 = tested on: NCI-H23
NCI/ADR-RES = tested on: NCI/ADR-RES
RXF 393 = tested on: RXF 393
HT-29 = tested on: HT-29
ACHN = tested on: ACHN
K562 = tested on: K562
SK-MEL-2 = tested on: SK-MEL-2
UO-31 = tested on: UO-31
MDA-N = tested on: MDA-N
UACC-62 = tested on: UACC-62
MCF7 = tested on: MCF7
CCRF-CEM = tested on: CCRF-CEM
SNB-75 = tested on: SNB-75
MOLT-4 = tested on: MOLT-4
HOP-92 = tested on: HOP-92
MDA-MB-231 = tested on: MDA-MB-231
786-0 = tested on: 786-0
BT-549 = tested on: BT-549
RPMI-8226 = tested on: RPMI-8226
HCC 2998 = tested on: HCC 2998
SK-MEL-28 = tested on: SK-MEL-28

For Cc1ccc(O)c(C2=CC(c3cccc(Br)c3)SC(=N)N2)c1 (stereo not drawn), the GI50 (NCI-H460) was 20.5 µM (inactive), the GI50 (SF-295) was 21.2 µM (inactive) and the GI50 (TK-10) was 19.6 µM (inactive). For the same molecule, the GI50 (U-251) was 17.5 µM (inactive), the GI50 (SK-OV-3) was 28.8 µM (inactive) and the GI50 (UACC-257) was 20.1 µM (inactive). The GI50 (PC-3) was 26.1 µM (inactive), the GI50 (HL-60) was 29 µM (inactive) and the GI50 (SF-539) was 22.4 µM (inactive). For the same molecule, the GI50 (IGROV-1) was 18.8 µM (inactive), the GI50 (HCT-116) was 17.3 µM (inactive) and the GI50 (OVCAR-8) was 35.2 µM (inactive). The GI50 (A549) was 25.8 µM (inactive), the GI50 (OVCAR-4) was 28.9 µM (inactive) and the GI50 (SNB-19) was 13.6 µM (inactive). The GI50 (Hs-578T) was 20.4 µM (inactive), the GI50 (SK-MEL-5) was 17 µM (inactive) and the GI50 (SR) was 17.1 µM (inactive). The GI50 (SF-268) was 28.8 µM (inactive), the GI50 (MDA-MB-435) was 18.7 µM (inactive) and the GI50 (DU-145) was 34.5 µM (inactive). For the same molecule, the GI50 (SW-620) was 28.4 µM (inactive), the GI50 (OVCAR-5) was 29.5 µM (inactive) and the GI50 (T47D) was 26.5 µM (inactive). The GI50 (Malme-3M) was 25.2 µM (inactive), the GI50 (EKVX) was 21 µM (inactive) and the GI50 (M14) was 24.3 µM (inactive). For the same molecule, the GI50 (HCT-15) was 14.5 µM, the GI50 (NCI-H226) was 26.9 µM (inactive) and the GI50 (LOX IMVI) was 18.5 µM (inactive). For the same molecule, the GI50 (NCI-H522) was 16 µM (inactive), the GI50 (CAKI-1) was 28.4 µM (inactive) and the GI50 (SN12C) was 20.8 µM (inactive). For the same molecule, the GI50 (HOP-62) was 21.6 µM (inactive), the GI50 (COLO 205) was 17.5 µM (inactive) and the GI50 (OVCAR-3) was 39.5 µM (inactive). The GI50 (KM12) was 27 µM (inactive), the GI50 (NCI-H23) was 25.6 µM (inactive) and the GI50 (NCI/ADR-RES) was 27.9 µM (inactive). The GI50 (RXF 393) was 19.5 µM (inactive), the GI50 (HT-29) was 33.7 µM (inactive) and the GI50 (ACHN) was 23.3 µM (inactive). The GI50 (K562) was 24.5 µM (inactive), the GI50 (SK-MEL-2) was 18.2 µM (inactive) and the GI50 (UO-31) was 25 µM (inactive). The GI50 (MDA-N) was 19.7 µM (inactive), the GI50 (UACC-62) was 17.1 µM (inactive) and the GI50 (MCF7) was 23.3 µM (inactive). For the same molecule, the GI50 (CCRF-CEM) was 25.6 µM (inactive), the GI50 (SNB-75) was 19.5 µM (inactive) and the GI50 (MOLT-4) was 18.9 µM (inactive). The GI50 (HOP-92) was 19 µM (inactive), the GI50 (MDA-MB-231) was 25.8 µM (inactive) and the GI50 (786-0) was 23.7 µM (inactive). The GI50 (BT-549) was 29.8 µM (inactive) and the GI50 (RPMI-8226) was 18 µM (inactive).

In the case of CC1=C(C(=O)OC(C)C)C(c2ccccc2C(F)(F)F)C(C(=O)OC(CO[N+](=O)[O-])CO[N+](=O)[O-])=C(C)N1 (stereo not drawn), the GI50 (NCI-H460) is reported as 5.19 µM (inactive), the GI50 (SF-295) is reported as 4.21 µM (inactive) and the GI50 (TK-10) is reported as 23.9 µM (inactive). For the same molecule, the GI50 (U-251) was 8.26 µM (inactive), the GI50 (SK-OV-3) was 11.2 µM (inactive) and the GI50 (UACC-257) was 6.34 µM (inactive). For the same molecule, the GI50 (HCC 2998) was 21.6 µM (inactive), the GI50 (PC-3) was 2.56 µM (inactive) and the GI50 (HL-60) was 95.5 µM (inactive). For the same molecule, the GI50 (SF-539) was 9.48 µM (inactive), the GI50 (IGROV-1) was 9.29 µM (inactive) and the GI50 (HCT-116) was 3.76 µM (inactive). The GI50 (OVCAR-8) was 8.13 µM (inactive), the GI50 (A549) was 3.92 µM (inactive) and the GI50 (OVCAR-4) was 5.3 µM (inactive). The GI50 (SNB-19) was 14.7 µM (inactive), the GI50 (Hs-578T) was 15.8 µM (inactive) and the GI50 (SK-MEL-5) was 5.52 µM (inactive). For the same molecule, the GI50 (SR) was 5 µM (inactive), the GI50 (SF-268) was 8.63 µM (inactive) and the GI50 (MDA-MB-435) was 6.28 µM (inactive). For the same molecule, the GI50 (DU-145) was 16.6 µM (inactive), the GI50 (SW-620) was 5.79 µM (inactive) and the GI50 (OVCAR-5) was 19.3 µM (inactive). The GI50 (T47D) was 3.83 µM (inactive), the GI50 (Malme-3M) was 12.2 µM (inactive) and the GI50 (EKVX) was 13.3 µM (inactive). For the same molecule, the GI50 (M14) was 6.98 µM (inactive), the GI50 (HCT-15) was 7.96 µM and the GI50 (NCI-H226) was 13.7 µM (inactive). The GI50 (LOX IMVI) was 4.61 µM (inactive), the GI50 (NCI-H522) was 3.35 µM (inactive) and the GI50 (CAKI-1) was 9.98 µM (inactive). For the same molecule, the GI50 (SN12C) was 4.09 µM (inactive), the GI50 (HOP-62) was 11 µM (inactive) and the GI50 (COLO 205) was 10.2 µM (inactive). The GI50 (OVCAR-3) was 9.31 µM (inactive), the GI50 (KM12) was 5.14 µM (inactive) and the GI50 (NCI-H23) was 12.7 µM (inactive). The GI50 (NCI/ADR-RES) was 4.39 µM (inactive), the GI50 (RXF 393) was 9.16 µM (inactive) and the GI50 (HT-29) was 5.79 µM (inactive). For the same molecule, the GI50 (ACHN) was 4.79 µM (inactive), the GI50 (K562) was 2.69 µM (inactive) and the GI50 (SK-MEL-2) was 14.1 µM (inactive). The GI50 (SK-MEL-28) was 16.8 µM (inactive), the GI50 (UO-31) was 1.95 µM (inactive) and the GI50 (MDA-N) was 4.61 µM (inactive). For the same molecule, the GI50 (UACC-62) was 3.99 µM (inactive), the GI50 (MCF7) was 4.22 µM (inactive) and the GI50 (CCRF-CEM) was 2.72 µM (inactive). The GI50 (SNB-75) was 2.21 µM (inactive), the GI50 (MOLT-4) was 2.17 µM (inactive) and the GI50 (MDA-MB-231) was 12.3 µM (inactive). The GI50 (786-0) was 2.87 µM (inactive), the GI50 (BT-549) was 5.11 µM (inactive) and the GI50 (RPMI-8226) was 3.94 µM (inactive).
